The experiment addresses T1, recombinant human 17β-hydroxysteroid dehydrogenase type 1 (Homo sapiens, UniProt P14061).
T1 construct: made in house; host or cells: Sf9 insect cells (baculovirus, Bac to Bac Expression System)
T1 sequence (P14061 1-328): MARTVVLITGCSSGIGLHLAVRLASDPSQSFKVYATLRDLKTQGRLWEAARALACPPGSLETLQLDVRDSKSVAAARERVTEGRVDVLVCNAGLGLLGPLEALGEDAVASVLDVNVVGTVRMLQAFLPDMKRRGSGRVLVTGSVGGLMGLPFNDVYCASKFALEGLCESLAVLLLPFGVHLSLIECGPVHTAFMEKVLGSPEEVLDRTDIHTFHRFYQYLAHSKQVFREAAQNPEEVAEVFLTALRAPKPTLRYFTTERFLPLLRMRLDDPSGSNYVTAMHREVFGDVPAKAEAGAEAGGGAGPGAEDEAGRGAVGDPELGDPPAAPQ
Kind of experiment: Inhibition of recombinant human 17β-hydroxysteroid dehydrogenase type 1 (3H-estrone to estradiol conversion, HPLC). To be noted: read-out: Inhibition of rec. 17β-HSD1 (% inhibition); for inhibition at 0.1 µM: inhibitor concentration 100 nM; for inhibition at 1 µM: 0.5 h, inhibitor concentration 1 μm. In kind it is biochemical. The protocol:
17β-HSD1 purification: Recombinant baculovirus was generated by the “Bac to Bac Expression System” (Invitrogen). Recombinant bacmid was transfected to Sf9 insect cells using “Cellfectin Reagent” (Invitrogen). 60 h later cells were harvested; the microsomal fraction was isolated as described by Puranen et al. (1994). Aliquots were stored frozen until determination of enzymatic activity.
Assay—Inhibition of recombinant human 17β-hydroxysteroid dehydrogenase type 1: Recombinant protein (0.1 μg/ml) was incubated in 20 mM KH2PO4 pH 7.4 with 30 nM 3H-estrone and 1 mM NADPH for 30 min at RT, in the presence of potential inhibitors at concentrations of 1 μM or 0.1 μM. Inhibitor stock solutions were prepared in DMSO. Final concentration of DMSO was adjusted to 1% in all samples. The enzyme reaction was stopped by addition of 10% trichloroacetic acid (final concentration). Samples were centrifuged in a microtiter plate at 4000 rpm for 10 min. Supernatants were applied to reverse phase HPLC on a Waters Symmetry C18 column, equipped with a Waters Sentry Guard column. Isocratic HPLC runs were performed at RT at a flow rate of 1 ml/min of acetonitrile:water 48:52 as running solvent. Radioactivity was monitored in the eluate by a Packard Flow Scintillation Analyzer. Total radioactivity for estrone and estradiol were determined in each sample and percent conversion of estrone to estradiol was calculated according to the following formula:
Percent inhibition was calculated as follows: % inhibition=100−% conversion

The structures appear in SMILES notation.

Drawing on US8030298B2, “17β-HSD1 and STS inhibitors” (Abbott Products GmbH, priority 2005, dated 2011), this text covers inhibition for 37 molecules.

What is called inhibition is the drop in the measured response relative to a control, in per cent. As for `C[C@]12CC[C@@H]3c4ccc(OCc5ccccc5)cc4CC[C@H]3[C@@H]1[C@H](C/C=C/C(=O)N1CCOCC1)c1cnoc12` [161′], the inhibition at 0.1 µM is 21%. Still for that read-out and setting: then `CCCc1cc2c(cc1O)CC[C@H]1[C@@H]3[C@H](CCCC(=O)NCc4ccc5c(c4)OCO5)CC(=O)[C@@]3(C)CC[C@H]21` [Compound 30], with 39.8%; and `CCCc1cc2c(cc1O)CC[C@H]1[C@@H]3[C@H](CCCC(=O)NCc4cccnc4)CC(=O)[C@@]3(C)CC[C@H]21` [Compound 32], with 50%.

As to `CCCc1cc2c(cc1O)CC[C@H]1[C@@H]3[C@H](CCCC(=O)NCCc4c[nH]c5c(C)cccc45)CC(=O)[C@@]3(C)CC[C@H]21` [Compound 34], the inhibition at 0.1 µM was determined as 68.8%. In the case of `CCCc1cc2c(cc1O)CC[C@H]1[C@@H]3[C@H](CCCC(=O)N4CCCCC4)CC(=O)[C@@]3(C)CC[C@H]21` [Compound 36], the inhibition at 0.1 µM is 56.9%. Same read-out and setting: the figure for `CCCc1cc2c(cc1O)CC[C@H]1[C@@H]3[C@H](CCCC(=O)N(C)Cc4ccccc4)CC(=O)[C@@]3(C)CC[C@H]21` [Compound 37] is 64%; for `CCCc1cc2c(cc1O)CC[C@H]1[C@@H]3[C@H](CCCC(=O)N(C)CCc4ccc(OC)c(OC)c4)CC(=O)[C@@]3(C)CC[C@H]21` [Compound 38] it is 51%.

On to `CCCc1cc2c(cc1O)CC[C@H]1[C@@H]3[C@H](CCCC(=O)Nc4ccc5cn[nH]c5c4)CC(=O)[C@@]3(C)CC[C@H]21` [Compound 40], for which the inhibition at 0.1 µM came out at 72%.

In the case of `CCCc1cc2c(cc1O)CC[C@H]1[C@@H]3[C@H](CCCC(=O)NCCOC)CC(=O)[C@@]3(C)CC[C@H]21` [Compound 41], the inhibition at 0.1 µM is 25.9%. Same read-out and setting: then `CCCc1cc2c(cc1O)CC[C@H]1[C@@H]3[C@H](CCCC(=O)NCc4ccc(F)cc4F)CC(=O)[C@@]3(C)CC[C@H]21` [Compound 42], with 53.3%; and `CCOc1cc2c(cc1O)CC[C@H]1[C@@H]3[C@@H](CCCC(=O)NC4CCCCC4)CC(=O)[C@@]3(C)CC[C@H]21` [Compound 44], with 55.5%; and `CCOc1cc2c(cc1O)CC[C@H]1[C@@H]3[C@@H](CCCC(=O)NCc4ccc5c(c4)OCO5)CC(=O)[C@@]3(C)CC[C@H]21` [Compound 45], with 54%. On to `CCOc1cc2c(cc1O)CC[C@H]1[C@@H]3[C@@H](CCCC(=O)NCCc4c[nH]c5c(C)cccc45)CC(=O)[C@@]3(C)CC[C@H]21` [Compound 52], for which the inhibition at 1 µM was found to be 72.2% and the inhibition at 0.1 µM is 50%. The like results for `CCOc1cc2c(cc1O)CC[C@H]1[C@@H]3[C@@H](CCCC(=O)N4CCCCC4)CC(=O)[C@@]3(C)CC[C@H]21` [Compound 55] were, in that order, 71.9% and 42.6%. Taken in the same sequence, the figures for `CCOc1cc2c(cc1O)CC[C@H]1[C@@H]3[C@@H](CCCC(=O)Nc4ccc5cn[nH]c5c4)CC(=O)[C@@]3(C)CC[C@H]21` [Compound 59] were 69.7% and 56.1%. Turning to `COc1cc2c(cc1O)CC[C@H]1[C@@H]3[C@@H](CCCC(=O)NC4CCCCC4)CC(=O)[C@@]3(C)CC[C@H]21` [Compound 67], the inhibition at 1 µM came to 73.2% and the inhibition at 0.1 µM was found to be 42.5%. Taken in the same sequence, the figures for `COc1cc2c(cc1O)CC[C@H]1[C@@H]3[C@@H](CCCC(=O)NCc4ccccc4)CC(=O)[C@@]3(C)CC[C@H]21` [Compound 71] were 70.6% and 45.8%.

For `COc1cc2c(cc1O)CC[C@H]1[C@@H]3[C@@H](CCCC(=O)N4CCCCC4)CC(=O)[C@H]3CC[C@H]21` [Compound 78], the inhibition at 1 µM is 72% and the inhibition at 0.1 µM turned out to be 40.6%. In the case of `COc1cc2c(cc1O)CC[C@H]1[C@@H]3[C@@H](CCCC(=O)Nc4ccc5cn[nH]c5c4)CC(=O)[C@@]3(C)CC[C@H]21` [Compound 83], the inhibition at 1 µM worked out at 71.6% and the inhibition at 0.1 µM stood at 53.9%. The like results for `C[C@]12CC[C@@H]3c4ccc(O)cc4CC[C@H]3[C@@H]1[C@@H](CCCC(=O)NC1CCCCC1)CC2(F)F` [Compound 102] were, in that order, 70.6% and 41.6%. The like results for `C[C@]12CC[C@@H]3c4ccc(O)cc4CC[C@H]3[C@@H]1[C@@H](CCCC(=O)NCc1ccccc1)CC2(F)F` [Compound 106] were, in that order, 68% and 36.7%. With `C[C@]12CC[C@@H]3c4ccc(O)cc4CC[C@H]3[C@@H]1[C@@H](CCCC(=O)NCc1ccc(O)c(O)c1)CC2(F)F` [Compound 109], the inhibition at 1 µM is 70.7% and the inhibition at 0.1 µM amounted to 35.1%. On to `Cc1cccc2c(CCNC(=O)CCC[C@H]3CC(F)(F)[C@@]4(C)CC[C@@H]5c6ccc(O)cc6CC[C@H]5[C@H]34)c[nH]c12` [Compound 111], for which the inhibition at 1 µM is 68.3% and the inhibition at 0.1 µM is 50.6%. In the case of `C[C@]12CC[C@@H]3c4ccc(O)cc4CC[C@H]3[C@@H]1[C@@H](CCCC(=O)N1CCCCC1)CC2(F)F` [Compound 113], the inhibition at 1 µM was determined as 76.9% and the inhibition at 0.1 µM is 47.2%. Take `COc1ccc(CCN(C)C(=O)CCC[C@H]2CC(F)(F)[C@@]3(C)CC[C@@H]4c5ccc(O)cc5CC[C@H]4[C@H]23)cc1OC` [Compound 116]: the inhibition at 0.1 µM came to 49.3%. The same measure, in the same setting: the figure for `C[C@]12CC[C@@H]3c4ccc(O)cc4CC[C@H]3[C@@H]1[C@H](CCC(=O)NC1CC1)CC2(F)F` [Compound 120] is 37.3%; for `C[C@]12CC[C@@H]3c4ccc(O)cc4CC[C@H]3[C@@H]1[C@H](CCC(=O)NC1CCCCC1)CC2(F)F` [Compound 121] it is 63.6%. Same read-out and setting: the figure for `C[C@]12CC[C@@H]3c4ccc(O)cc4CC[C@H]3[C@@H]1[C@H](CCC(=O)NCc1ccc3c(c1)OCO3)CC2(F)F` [Compound 122] is 34%; for `C[C@]12CC[C@@H]3c4ccc(O)cc4CC[C@H]3[C@@H]1[C@H](CCC(=O)NCc1ccccc1)CC2(F)F` [Compound 125] it is 29.2%; for `C[C@]12CC[C@@H]3c4ccc(O)cc4CC[C@H]3[C@@H]1[C@H](CCC(=O)NCc1ccc(O)c(O)c1)CC2(F)F` [Compound 127] it is 21.1%. In the case of `COc1cc(CNC(=O)CC[C@@H]2CC(F)(F)[C@@]3(C)CC[C@@H]4c5ccc(O)cc5CC[C@H]4[C@H]23)cc(OC)c1` [Compound 128], the inhibition at 0.1 µM was 21.2%. The same measure, in the same setting: then `Cc1cccc2c(CCNC(=O)CC[C@@H]3CC(F)(F)[C@@]4(C)CC[C@@H]5c6ccc(O)cc6CC[C@H]5[C@H]34)c[nH]c12` [Compound 129], with 33.1%. On to `C[C@]12CC[C@@H]3c4ccc(O)cc4CC[C@H]3[C@@H]1[C@H](CCC(=O)N1CCCCC1)CC2(F)F` [Compound 131], for which the inhibition at 0.1 µM came to 19.8%. Same read-out and setting: then `CCN(CC)C(=O)CC[C@@H]1CC(F)(F)[C@@]2(C)CC[C@@H]3c4ccc(O)cc4CC[C@H]3[C@H]12` [Compound 133], with 71.4%; and `COc1ccc(CCN(C)C(=O)CC[C@@H]2CC(F)(F)[C@@]3(C)CC[C@@H]4c5ccc(O)cc5CC[C@H]4[C@H]23)cc1OC` [Compound 134], with 50.5%. The same measure, in the same setting: the figure for `CCCc1cc2c(cc1O)CC[C@H]1[C@@H]3[C@H](CCCC(=O)NCc4ccccc4)CC(=O)[C@@]3(C)CC[C@H]21` [Example 2, N-Benzyl-4-(3-hydroxy-17-oxo-2-propyl-estra-1,3,5(10)-trien-15β-yl)-butyramide] is 54.8%; for `COCCc1cc2c(cc1O)CC[C@H]1[C@@H]3[C@H](CCCC(=O)NCc4ccccc4)CC(=O)[C@@]3(C)CC[C@H]21` [Example 3, N-Benzyl-4-(3-hydroxy-2-(2-methoxy-ethyl)-17-oxo-estra-1,3,5(10)-trien-15β-yl)-butyramide] it is 19.6%.
